These results are taken from patent US20230152325A1, “Active Alpha-5-Beta-1 Integrin As A Biomarker For Enhancing Tumor Treatment Efficacy” (Institute For Cancer Research d/b/a The Research Institute …, priority 2016, published 2023).

In assay [1] the test system is naïve pancreatic fibroblasts cultured within D-ECM. Kind of assay: ECM prompted myofibroblastic maintenance (α-SMA / F-actin immunofluorescence), PDAC model. The following applies: for D-ECM induced myofibroblastic phenotype (α-SMA expression / stress fiber localization), in words: naïve cells within D-ECM treated with the agent; for α-SMA expression, Median / α-SMA stress fiber localization, Median: normalized to untreated D-ECM = 1. The class given is cell-based, human. As to the method: (§1) ECM prompted myofibroblastic maintenance. Human naïve or assorted murine fibroblasts were incubated for 45 minutes prior to overnight culturing within assorted ECMs, prepared as above, in the presence or absence of 50 μg/ml SNAKA51, 60 μg/m ALULA, 250 μg/m mAb16, or BMAS diluted as instructed by the manufacturer (Millipore, Temecula, Calif.), IgG control, DMSO or small molecule inhibitors FAK (PF573,228) and SRC family kinases (PP2). ECM-induced phenotypes were assessed via RT-qPCR, Western Blot or immunofluorescence.
(§2) Naïve/innate PDAC and RCC patient harvested fibroblasts were cultured overnight within normal (N-ECM) vs. desmoplastic (D-ECM or DECMs that were produced in the presence or absence of TGFβ1-receptor inhibition (D+TGFβi) or vehicle control (D+DMSO). Alternatively, naïve cells cultured within D-ECMs were treated with either TGFβ1-receptor inhibitor (TGFβ-i), vehicle (DMSO), functional blocking antibodies anti-αvβ5 integrin (alula, αvβ5-i), anti-α5β1 integrin (mAb16, α5β1-i), combinations of both functional blocking antibodies (β5-i+α5-i), functional stabilizing anti α5β1 integrin (SNAKA51; α5β1-act) or non-immunized isotypic antibodies (IgG). All samples were subjected to indirect immunofluorescent labeling of desmoplastic marker α-SMA and counterstained with fluorescently labeled phalloidin to detect actin stress fibers (F-actin) and determine the co-localization ratio. Monochromatic “heat map” images (see, FIG. 2A) represent α-SMA intensity values. A 255 tones intensity scale bar is shown to the right. A summary of all measured values is graphed in FIG. 2B. Additional monochromatic images indicative of double labeled staining for α-SMA and F-actin are in FIG. 2C while levels of total α-SMA localized at corresponding stress fibers are plotted in FIG. 2D. Untreated D-ECM conditions were included in all experiments summarized in this figure and serve as normalization (1 arbitrary unit; a.u.) controls. Matching values including statistical significances are listed in accompanying Table 1. All scale bars represent 50 μm. TGFβ activity was needed to maintain functional D-ECM production but was dispensable when testing D-ECM induced responses, while the later were obstructed by αvβ5 integrin inhibition or active α5β1 integrin stabilization.

The test system of assay [2] is naïve renal fibroblasts cultured within D-ECM. The experiment in a line: ECM prompted myofibroblastic maintenance (α-SMA / F-actin immunofluorescence), RCC model. The class given is cell-based, human. The following applies: for D-ECM induced myofibroblastic phenotype (α-SMA expression / stress fiber localization), in words: naïve cells within D-ECM treated with the agent; for α-SMA expression, Median / α-SMA stress fiber localization, Median: normalized to untreated D-ECM = 1. As for the experimental part:
as §1, §2

Assay [3] concerns PDAC desmoplastic fibroblasts (D-ECM production). The experiment in a line: ECM fiber orientation analysis of D-ECM produced by PDAC-associated fibroblasts. The class given is cell-based, human. As to the method:
Un-extracted 3D cultures were either processed for phenotypic characterization, ECM alignment measurements, or decellularized to assess maintenance of myofibroblastic phenotype. ECM fiber orientation analysis. Fibronectin channel monochromatic images were analyzed via Imager OrientationJ plugin. Numerical outputs were normalized by setting mode angles to 0° and correcting angle spreads to fluctuate between −90° and 90°. Angle spreads for each experimental condition, corresponding to a minimum of three experimental repetitions and five image acquisitions per condition were plotted and their standard deviations calculated. The percentage of fibers oriented between −15° and 15° was determined for each normalized image-obtained data. FIGS. 1A through 1E show desmoplastic (D)-ECM remodeling by TGFβ-blockage bestows normal (N)-ECM-like phenotypes. Fibroblasts were isolated from pancreatic ductal adenocarcinoma (PDAC) and renal cell carcinoma (RCC) surgical samples and their ECM producing phenotypes were assessed prior to ECM decellularization via fibroblastic extraction. […] Complementary low/heterogeneous vs. high/organized α-SMA levels, with heterogeneous/round vs. elongated/spindled cell nuclei, and disorganized/woven vs. parallel/aligned ECM fibers are evident in the representative images. […] Scale bars represent 50 μm.

Assay [4] relates to RCC desmoplastic fibroblasts (D-ECM production). Kind of assay: ECM fiber orientation analysis of D-ECM produced by RCC-associated fibroblasts. The class given is cell-based, human. The source says:
(§3) Preparation of fibroblasts-derived 3D ECMs. Extracellular matrices (ECMs) were obtained in the presence or absence of TGFβ1R small molecule inhibitor SB431542, DMSO, conformation-dependent anti-active α5 integrin functional antibody (SNAKA51), functional-blocking anti αvβ5 integrin (ALULA), or species matched non-immunized isotypic antibodies. Un-extracted 3D cultures were either processed for phenotypic characterization, ECM alignment measurements, or decellularized to assess maintenance of myofibroblastic phenotype.
ECM fiber orientation analysis. Fibronectin channel monochromatic images were analyzed via Imager OrientationJ plugin. […] Angle spreads for each experimental condition, corresponding to a minimum of three experimental repetitions and five image acquisitions per condition were plotted and their standard deviations calculated. The percentage of fibers oriented between −15° and 15° was determined for each normalized image-obtained data.
FIGS. 1A through 1E show desmoplastic (D)-ECM remodeling by TGFβ-blockage bestows normal (N)-ECM-like phenotypes. Fibroblasts were isolated from pancreatic ductal adenocarcinoma (PDAC) and renal cell carcinoma (RCC) surgical samples and their ECM producing phenotypes were assessed prior to ECM decellularization via fibroblastic extraction. […]

The test system of assay [5] is TGFβ levels stored within ECMs. Kind of assay: TGFβ protein levels in 3D unextracted culture lysates by ELISA. The following applies: inhibitor used during D-ECM production; <0.0001. The class given is cell-based, human. The source says: (§4) FIGS. 7A through 7F show characterization of human fibroblastic cells isolated from PDAC and RCC surgical samples. […] Isolated cells were probed for desmoplastic markers α-SMA and palladin while Panc1 (a pancreatic cancer cell line) cells were used as epithelial to mesenchyme […] (EMT) controls known to express both epithelial and mesenchymal markers. Assorted markers are shown in white while counterstained Hoechst identified nuclei are shown in yellow. […] TGFβ inhibition causes disorganization of desmoplastic and ablation of normal ECMs. […] Data were normalized to total protein concentration and to D-ECM readouts; results are expressed as arbitrary units (A.U.). […] All scale bars represent 50 μm.
In general terms: ELISA stands for enzyme-linked immunosorbent assay.

Assay [6] has as its system normal fibroblasts (N-ECM assembly). The experiment in a line: N-ECM assembly by normal fibroblasts under TGFβ1-receptor blockage. The class given is cell-based, human. The following applies: blockage of TGFβ signaling during ECM production.
From the text: as §3, §4

In assay [7] the target is alpha-v-beta-5 (αvβ5) integrin, human (human) (UniProt P06756). Kind of assay: cell-based or functional assay.
Sequence of UniProt P06756 (P06756 31-1048, chain 1 of 2): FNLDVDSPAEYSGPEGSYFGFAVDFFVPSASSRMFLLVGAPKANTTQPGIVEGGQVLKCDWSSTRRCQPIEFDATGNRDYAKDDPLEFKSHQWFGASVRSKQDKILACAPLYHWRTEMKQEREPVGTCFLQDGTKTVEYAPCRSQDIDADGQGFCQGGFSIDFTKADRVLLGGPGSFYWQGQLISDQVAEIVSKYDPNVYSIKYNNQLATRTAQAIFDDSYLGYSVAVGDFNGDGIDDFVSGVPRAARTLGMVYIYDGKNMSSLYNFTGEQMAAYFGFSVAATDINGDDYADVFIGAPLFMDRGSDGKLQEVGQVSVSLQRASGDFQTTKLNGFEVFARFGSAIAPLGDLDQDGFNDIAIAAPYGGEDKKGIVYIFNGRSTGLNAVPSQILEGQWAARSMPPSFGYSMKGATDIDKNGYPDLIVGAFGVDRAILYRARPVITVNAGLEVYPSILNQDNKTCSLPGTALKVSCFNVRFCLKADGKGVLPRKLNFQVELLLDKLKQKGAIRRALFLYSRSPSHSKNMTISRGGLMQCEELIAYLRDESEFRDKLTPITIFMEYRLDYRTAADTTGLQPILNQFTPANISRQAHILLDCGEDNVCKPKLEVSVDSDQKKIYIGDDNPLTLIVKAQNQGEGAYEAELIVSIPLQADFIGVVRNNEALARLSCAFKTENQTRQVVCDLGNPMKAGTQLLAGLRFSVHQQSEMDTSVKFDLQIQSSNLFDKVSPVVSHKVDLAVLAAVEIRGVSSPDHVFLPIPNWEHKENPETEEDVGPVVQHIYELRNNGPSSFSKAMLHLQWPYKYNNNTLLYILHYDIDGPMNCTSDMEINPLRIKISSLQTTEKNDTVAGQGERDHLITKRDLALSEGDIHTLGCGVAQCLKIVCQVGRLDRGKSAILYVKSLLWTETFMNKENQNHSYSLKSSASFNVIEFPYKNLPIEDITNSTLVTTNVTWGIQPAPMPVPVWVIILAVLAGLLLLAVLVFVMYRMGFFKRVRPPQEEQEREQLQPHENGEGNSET
Sequence of UniProt P06756 (P18084 24-799, chain 2 of 2, further chain): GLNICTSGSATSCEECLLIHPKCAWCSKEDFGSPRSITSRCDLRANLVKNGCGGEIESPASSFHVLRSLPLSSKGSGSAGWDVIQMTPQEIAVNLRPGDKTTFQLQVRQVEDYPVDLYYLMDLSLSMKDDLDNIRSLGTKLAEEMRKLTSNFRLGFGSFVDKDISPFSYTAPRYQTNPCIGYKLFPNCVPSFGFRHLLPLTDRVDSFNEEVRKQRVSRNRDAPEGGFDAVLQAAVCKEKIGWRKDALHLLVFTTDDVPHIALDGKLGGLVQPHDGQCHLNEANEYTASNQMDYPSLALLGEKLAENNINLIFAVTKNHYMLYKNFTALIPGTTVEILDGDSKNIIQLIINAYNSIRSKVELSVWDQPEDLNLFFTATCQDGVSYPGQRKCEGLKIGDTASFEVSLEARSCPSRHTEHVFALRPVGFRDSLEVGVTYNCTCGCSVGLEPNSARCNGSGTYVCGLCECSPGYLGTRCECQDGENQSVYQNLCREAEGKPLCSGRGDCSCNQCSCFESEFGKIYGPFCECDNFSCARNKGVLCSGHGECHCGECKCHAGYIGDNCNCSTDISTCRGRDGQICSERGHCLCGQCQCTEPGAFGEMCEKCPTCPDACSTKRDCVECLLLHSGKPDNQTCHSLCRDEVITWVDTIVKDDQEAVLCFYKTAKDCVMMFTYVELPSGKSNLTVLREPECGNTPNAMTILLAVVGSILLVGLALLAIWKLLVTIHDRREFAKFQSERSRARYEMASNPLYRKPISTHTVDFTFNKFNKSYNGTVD
Assay [8] concerns the target αvβ5 integrin, murine (murine) (UniProt P43406). Kind of assay: cell-based or functional assay.
Sequence of UniProt P43406 (P43406 31-1044, chain 1 of 2): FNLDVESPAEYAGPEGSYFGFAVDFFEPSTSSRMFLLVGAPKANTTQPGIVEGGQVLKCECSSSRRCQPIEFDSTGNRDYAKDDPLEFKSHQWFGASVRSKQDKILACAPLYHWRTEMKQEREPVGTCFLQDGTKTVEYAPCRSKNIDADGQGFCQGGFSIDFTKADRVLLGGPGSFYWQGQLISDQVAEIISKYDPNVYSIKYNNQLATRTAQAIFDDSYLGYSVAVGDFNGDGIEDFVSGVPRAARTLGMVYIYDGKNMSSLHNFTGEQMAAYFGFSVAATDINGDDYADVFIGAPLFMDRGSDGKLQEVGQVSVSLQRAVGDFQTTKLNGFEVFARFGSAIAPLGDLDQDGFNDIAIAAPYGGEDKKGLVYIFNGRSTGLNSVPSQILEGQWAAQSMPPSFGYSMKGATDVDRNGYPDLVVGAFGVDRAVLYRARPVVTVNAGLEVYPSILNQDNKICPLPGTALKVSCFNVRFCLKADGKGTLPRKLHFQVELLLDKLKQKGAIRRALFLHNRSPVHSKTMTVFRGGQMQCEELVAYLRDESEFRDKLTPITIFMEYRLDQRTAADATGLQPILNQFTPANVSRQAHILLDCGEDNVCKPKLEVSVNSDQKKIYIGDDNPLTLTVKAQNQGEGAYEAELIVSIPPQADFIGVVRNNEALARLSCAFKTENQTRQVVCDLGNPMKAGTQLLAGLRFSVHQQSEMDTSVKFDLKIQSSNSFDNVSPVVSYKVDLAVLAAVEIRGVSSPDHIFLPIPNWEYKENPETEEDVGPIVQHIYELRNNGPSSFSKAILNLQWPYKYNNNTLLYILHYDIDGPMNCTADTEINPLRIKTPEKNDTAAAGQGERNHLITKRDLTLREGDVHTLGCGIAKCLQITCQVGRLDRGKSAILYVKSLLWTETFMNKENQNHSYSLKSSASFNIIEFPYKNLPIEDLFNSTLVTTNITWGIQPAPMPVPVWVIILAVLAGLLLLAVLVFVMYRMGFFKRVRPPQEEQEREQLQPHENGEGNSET
Sequence of UniProt P43406 (O70309 24-798, chain 2 of 2, further chain): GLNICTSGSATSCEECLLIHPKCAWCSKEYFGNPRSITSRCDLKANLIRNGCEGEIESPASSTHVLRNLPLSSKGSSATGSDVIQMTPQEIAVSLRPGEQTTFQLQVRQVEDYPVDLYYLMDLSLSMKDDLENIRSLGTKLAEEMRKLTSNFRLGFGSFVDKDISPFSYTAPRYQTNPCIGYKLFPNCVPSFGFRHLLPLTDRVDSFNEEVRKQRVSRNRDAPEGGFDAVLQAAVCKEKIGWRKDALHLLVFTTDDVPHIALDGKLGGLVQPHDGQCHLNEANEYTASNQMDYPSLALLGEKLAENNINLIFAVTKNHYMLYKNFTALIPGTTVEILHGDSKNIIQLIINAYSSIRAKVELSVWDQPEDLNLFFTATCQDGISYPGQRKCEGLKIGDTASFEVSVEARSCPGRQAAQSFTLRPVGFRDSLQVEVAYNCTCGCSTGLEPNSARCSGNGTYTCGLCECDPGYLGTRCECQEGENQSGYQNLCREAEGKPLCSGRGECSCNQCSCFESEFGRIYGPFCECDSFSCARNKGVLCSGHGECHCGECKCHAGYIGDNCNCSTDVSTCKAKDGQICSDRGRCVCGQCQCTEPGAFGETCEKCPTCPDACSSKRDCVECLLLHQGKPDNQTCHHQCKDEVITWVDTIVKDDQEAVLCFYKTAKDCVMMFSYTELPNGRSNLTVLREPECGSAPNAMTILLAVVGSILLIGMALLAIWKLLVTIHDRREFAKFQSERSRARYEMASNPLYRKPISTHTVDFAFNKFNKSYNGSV
In assay [9] the target is alpha-5-beta-1 (α5β1) integrin, human (human) (UniProt P08648). The experiment in a line: cell-based or functional assay.
[10] abbreviates: SB-431542 during D-ECM production.
[11] abbreviates: PDAC, naïve cells within D-ECM treated overnight.
Setting [12] is: PDAC, naïve fibroblasts in D-ECM that was produced in presence of TGFβ1-receptor inhibitor.
The mark [13] stands for this setting: RCC, naïve cells within D-ECM treated overnight.
Setting [14] is: RCC, naïve fibroblasts in D-ECM that was produced in presence of TGFβ1-receptor inhibitor.

Turning to `CC(C)(C)n1nc(-c2ccc(Cl)cc2)c2c(N)ncnc21` [PP2], the “D-ECM induced myofibroblastic phenotype (α-SMA expression / stress fiber localization), in words” value in assay [1] (PDAC) and in [2] (RCC) was “D-ECM-induced phenotype was lost” throughout.
On to `NC(=O)c1ccc(-c2nc(-c3ccc4c(c3)OCO4)c(-c3ccccn3)[nH]2)cc1` [SB-431542], for which the “fiber alignment (fibers distributed at 15° from the mode angle)” value amounted to 36% in [3] (setting [10]) and 47% in [4] (setting [10]). Also, the “ECM fiber alignments reduced to” value in assay [3] (TGFβ blockage during D-ECM production, n=21, P<0.0001) was 47%; in [4] (TGFβ blockage during D-ECM production, n=26, P=0.0028), 51%. The “reduction of TGFβ levels stored within ECMs” value in [5] came to 60%. In addition, the “de novo N-ECM assembly” value in assay [6] is given as “prevented de novo N-ECM assembly”. Moreover, the “stress fiber localization of α-SMA relative to the untreated D-ECM” value is 55% in assay [1] (PDAC, D-ECM produced under TGFβ blockage, re-seeded with naïve fibroblasts) and 72% in [2] (RCC, D-ECM produced under TGFβ blockage, re-seeded with naïve fibroblasts). Besides, the “α-SMA expression, Median” value in assay [1] (setting [11]) is reported as 0.62 a.u; in [1] (setting [12]), 0.73 a.u; in assay [2] (setting [13]), 1.00 a.u; in [2] (setting [14]), 0.41 a.u. Further, the “α-SMA stress fiber localization, Median” value was determined as 0.96 a.u in assay [1] (setting [11]), 0.55 a.u in [1] (setting [12]), 1.03 a.u in [2] (setting [13]) and 0.72 a.u in assay [2] (setting [14]). Moreover, the “D-ECM induced myofibroblastic phenotype (α-SMA expression / stress fiber localization), in words” value in assay [1] (PDAC) and in [2] (RCC) was “comparable” throughout. The “α-SMA expression levels relative to untreated conditions” value in assay [1] (PDAC, naïve fibroblasts plated in D-ECM in presence of the agent) is 62%; in assay [2] (RCC, naïve fibroblasts plated in D-ECM in presence of the agent) it was 100%. For the same compound, the “myofibroblastic phenotype induced de novo by the extracted ECM, in words” value in assay [1] (naïve pancreatic fibroblasts re-seeded in D-ECM produced in presence of SB-431542) and in [2] (naïve renal fibroblasts re-seeded in D-ECM produced in presence of SB-431542) was “comparable phenotypes” each time.
Regarding `C[C@@H]1C[C@@H]([C@H](O)CC2CC(=O)NC(=O)C2)C(=O)[C@@H](C)C1` [cycloheximide], the “α-SMA protein outcome in naïve fibroblasts re-plated in D-ECM, in words” value in assay [1] (overnight treatment with protein synthesis inhibitor, model not specified) is given as “did not influence outcomes”.
In assay [7], “ALULA, functional-blocking anti αvβ5 integrin antibody” showed an intracellular levels of α5β1 integrin activity, PDAC of 0%; an intracellular levels of α5β1 integrin activity, RCC of 60%; a α5β1 integrin activity localized away from 3D-adhesions, PDAC (relative to D-ECM, a.u.=1) of 0.32 a.u; a α5β1 integrin activity localized away from 3D-adhesions, RCC (relative to D-ECM, a.u.=1) of 0.82 a.u. Further, in [7], the α-SMA expression, PDAC, median (normalized to untreated D-ECM) came to 0.29 a.u; the α-SMA expression, RCC, median (normalized to untreated D-ECM) is 0.58 a.u; the α-SMA stress fiber localization, PDAC, median (normalized to untreated D-ECM) was found to be 0.54 a.u; the α-SMA stress fiber localization, RCC, median (normalized to untreated D-ECM) worked out at 0.67 a.u. In assay [8], this compound yielded a percentage of FAK-/- murine fibroblasts in mD-ECM undergoing myofibroblastic activation of 14%, a percentage of murine cells in mD-ECM with myofibroblast activation under FAK inhibitor PF573,228 of 23% and a percentage of murine fibroblasts in mD-ECM undergoing myofibroblastic activation of 55%.
Turning to “SNAKA51, conformation-dependent anti-active α5 integrin functional antibody”, in assay [9], the α-SMA expression, PDAC, median (normalized to untreated D-ECM) stood at 0.32 a.u; the α-SMA expression, RCC, median (normalized to untreated D-ECM) is 0.43 a.u; the α-SMA stress fiber localization, PDAC, median (normalized to untreated D-ECM) came out at 0.56 a.u; the α-SMA stress fiber localization, RCC, median (normalized to untreated D-ECM) came out at 0.93 a.u.
In the case of “mAb16, functional blocking anti-α5β1 integrin antibody”, in assay [9], the α-SMA expression, PDAC, median (normalized to untreated D-ECM) is 0.71 a.u; the α-SMA expression, RCC, median (normalized to untreated D-ECM) is 0.53 a.u; the α-SMA stress fiber localization under FAK inhibitor PF573,228, PDAC worked out at 49%; the α-SMA stress fiber localization under FAK inhibitor PF573,228, RCC came to 45%. In assay [9], this compound gave a α-SMA stress fiber localization, PDAC, median (normalized to untreated D-ECM) of 0.77 a.u and a α-SMA stress fiber localization, RCC, median (normalized to untreated D-ECM) of 0.89 a.u.
